Source: US20070021501A1, “Methods of treating epileptogenesis” (priority 2005, published 2007)
Where “and” joins values, the source holds several entries; their conditions need not be identical. Equal entries are not always repeated.

Legend:
[1] = tested on: lithium-pilocarpine model of temporal lobe epilepsy in the rat; assay: Latency to and frequency of spontaneous seizures, video recording (Example 2); format: in vivo, Sprague-Dawley rats; conditions: DZP 2.5 mg/kg i.m.
Method: The effects of DZP and the 4 doses of TC on epileptogenesis were investigated by daily video recording of the animals for 10 h per day. Video recording was performed for 4 weeks during which the occurrence of the first seizure was noted as well as the total number of seizures over the whole period. Animals were then taken off the video recording system and kept for 4 additional weeks in our animal facilities before they were sacrificed after a total period of 8 weeks of epilepsy.

[2] = tested on: lithium-pilocarpine status epilepticus in the rat; assay: Mortality over the first 48 h after Li-pilo SE (Example 2); format: in vivo, Sprague-Dawley rats; conditions: DZP 2.5 mg/kg i.m.
Method: Adult male Sprague-Dawley rats provided by Janvier Breeding Center (Le Genest-St-lsle, France) were housed under controlled, uncrowded standard conditions at 20-22° C. (light/dark cycle, 7.00 a.m.-7.00 p.m. lights on), with food and water available ad libitum. All animal experimentation was performed in accordance with the rules of the European Communities Council Directive of Nov. 24, 1986 (86/609/EEC), and the French Department of Agriculture (License N^o 67-97).

[3] = tested on: lithium-pilocarpine model of temporal lobe epilepsy in the rat; assay: Mossy fiber sprouting in hippocampus, Timm staining (Example 1); format: in vivo; conditions: DZP (n=9)
Method: At 2 months after the onset of spontaneous recurrent seizures, mossy fiber sprouting was examined on rats in the chronic period exposed to the test compound or DZP and in 3 saline-saline rats. Animals were deeply anaesthetized and perfused transcardially with saline followed by 100 ml of 1.15% (w/v) Na2S in 0.1 M phosphate buffer, and 100 ml of 4% (v/v) formaldehyde in 0.1 M phosphate buffer. Brains were removed from skull, post-fixed in 4% formaldehyde during 3-5 h and 40 μm sections were cut on a sliding vibratome and mounted on gelatin-coated slides.
The following day, sections were developed in the dark in a 26° C. solution of 50% (w/v) arabic gum (160 ml), sodium citrate buffer (30 ml), 5.7% (w/v) hydroquinone (80 ml) and 10% (w/v) silver nitrate (2.5 ml) during 40-45 min. The sections were then rinsed with tap water at 40° C. during at least 45 min, rinsed rapidly with distilled water and allowed to dry. They were dehydrated in ethanol and coverslipped.
Mossy fiber sprouting was evaluated according to criteria previously described in dorsal hippocampus (Cavazos et al., 1991, J Neurosci 11:2795-2803.), which are follows: 0—no granules between the tips and crest of the DG; 1—sparse granules in the supragranular region in a patchy distribution between the tips and crest of DG; 2—more numerous granules in a continuous distribution between the tips and crest of DG; 3—prominent granules in a continuous pattern between tips and crest, with occasional patches of confluent granules between tips and crest; 4—prominent granules that form a confluent dense laminar band between tips and crest and 5—confluent dense laminar band of granules that extends into the inner molecular layer.

[4] = tested on: lithium-pilocarpine model of temporal lobe epilepsy in the rat; assay: Quantification of cell densities (neuronal counting) 14 days after Li-pilo SE (Example 2); conditions: for number of neuronal cell bodies: DZP 2.5 mg/kg i.m., 14 days after li-pilo SE
Method: All rats received lithium chloride (3 meq/kg, i.p., Sigma, St Louis, Mo., U.S.A.) and about 20 h later, all animals received also methylscopolamine bromide (1 mg/kg, s.c., Sigma) that was administered to limit the peripheral effects of the convulsant. […] The effects of increasing doses of TC were studied in 5 groups of rats. […] The control group received vehicle instead of pilocarpine and TC.
For neuronal counting, animals were deeply anesthetized with 1.8 g/kg pentobarbital (Dolethal®, Vétoquinol, Lure, France). Brains were then removed and frozen. Serial 20 μm slices were cut in a cryostat, air-dried during several days before thionine staining. […] The grid of counting was placed on a well defined area of the cerebral structure of interest and counting was carried out with a microscopic enlargement of 200- or 400-fold defined for each single cerebral structure. Cell counts were performed twice on each side of three adjacent sections for each region by a single observer unaware of the animal's treatment. The number of cells obtained in the 12 counted fields in each cerebral structure was averaged. This procedure was used to minimize the potential errors that could result from double counting leading to overestimation of cell numbers. […] Counts involved only neurons with cell bodies larger than 10 μm. Cells with small cell bodies were considered as glial cells and were not counted.
For neuronal damage and epileptogenesis, statistical analysis between groups was performed by means of a one-way analysis of variance followed by a post-hoc Dunnett or Fisher test using the Statistica software.

[5] = tested on: lithium-pilocarpine status epilepticus in the rat; assay: Mortality induced by SE, lithium-pilocarpine model (Example 1); format: in vivo; conditions: DZP 2 mg/kg i.m. 1 h after onset of SE (5/22)
Source text: The model induced in rats by pilocarpine associated with lithium (Li-Pilo) reproduces most of the clinical and neurophysiological features of human temporal lobe epilepsy (Turski et al., 1989, Synapse 3:154-171; Cavalheiro, 1995, Ital J Neurol Sci 16:33-37). In adult rats, the systemic administration of pilocarpine leads to status epilepticus (SE). The lethality rate reaches 30-50% during the first days. In the surviving animals, neuronal damage predominates within the hippocampal formation, the piriform and entorhinal cortices, thalamus, amygdaloid complex, neocortex and substantia nigra.
(§1) Male Wistar rats weighing 225-250 g, provided by Janvier Breeding Center (Le Genest-St-lste, France) were housed under controlled standard conditions (light/dark cycle, 7.00 a.m.-7.00 p.m. lights on), with food and water available ad libitum. All animal experimentation was performed in accordance with the rules of the European Communities Council Directive of Nov. 24, 1986 (86/609/EEC), and the French Department of Agriculture (License N^o 67-97). For electrode implantation, rats were anesthetized by an i.p. injection of 2.5 mg/kg diazepam (DZP, Valium, Roche, France) and […] ketamine chlorhydrate (Imalgene 1000, Rhone Merrieux, France). Four single-contact recording electrodes were placed on the skull, over the parietal cortex, two on each side.
(§2) The bilateral EEG cortical activity was recorded during the whole duration of SE and behavioral changes were noted.
The effects of increasing doses of the test compound were studied on 3 groups of rats. The animals of the first group received 10 mg/kg of the test compound, i.p., 1 h after the onset of SE (pilo-TC10) while the animals of groups 2 and 3 received 30 and 60 mg/kg of the test compound (pilo-TC30 and pilo-TC60), respectively.
The control group received saline instead of pilocarpine and the test compound (saline-saline). […] Pilo-DZP received a second injection of 1 mg/kg DZP on the day of SE at about 10 h after the first one. Thereafter, Pilo-DZP and saline-saline rats received twice daily an equivalent volume of saline.

[6] = tested on: lithium-pilocarpine status epilepticus in the rat; assay: EEG patterns during and after Li-pilo SE (Example 1); format: in vivo; conditions: DZP 2 mg/kg i.m.; cortex and hippocampus
Method: as §1, §2
The effects of the test compound on the EEG and on the latency to occurrence of SRS were investigated by daily video recording of the animals for 10 h per day and the recording of the electrographic activity twice a week for 8 h.

## CN1C(=O)CN=C(c2ccccc2)c2cc(Cl)ccc21 [DZP, diazepam]
[1]
  frequency of spontaneous seizures over the four weeks of recording: tendency to be higher
[2]; group devoted to cell counting at 14 days (4/11)
  mortality over the first 48 h after SE: 36%
[2]; group devoted to latency to SRS and late cell counting (1/14)
  mortality over the first 48 h after SE: 7%
[3]
  mean Timm score in the upper blade of the dentate gyrus: 2.8±0.8
[4]; Amygdala Medial, dorsal anterior
  number of neuronal cell bodies: 40.0 ± 2.5
[4]; Amygdala Medial, ventral posterior
  number of neuronal cell bodies: 21.8 ± 2.4
[4]; Cerebral cortex Entorhinal, layer II, dorsal
  number of neuronal cell bodies: 23.5 ± 0.7
[4]; Cerebral cortex Entorhinal, layer II, ventral
  number of neuronal cell bodies: 21.7 ± 1.3
[4]; Cerebral cortex Entorhinal, layer III/IV, dorsal
  number of neuronal cell bodies: 22.3 ± 0.5
[4]; Cerebral cortex Entorhinal, layer III/IV, ventral
  number of neuronal cell bodies: 7.7 ± 2.3
[4]; Cerebral cortex Piriform, layer II, dorsal
  number of neuronal cell bodies: 12.6 ± 4.2
[4]; Cerebral cortex Piriform, layer II, ventral
  number of neuronal cell bodies: 3.6 ± 0.7
[4]; Cerebral cortex Piriform, layer III
  number of neuronal cell bodies: 1.2 ± 1.2
[4]; DZP, all parts of the entorhinal cortex (range), 14 days after SE
  neurons surviving: 27-81%
[4]; DZP, amygdala basolateral nucleus, 14 days after SE
  neuronal loss (drop out) compared to control rats: 73%
[4]; DZP, amygdala central nucleus, 14 days after SE
  neuronal damage compared to control rats: no neuronal damage
[4]; DZP, amygdala medial dorsal anterior nucleus, 14 days after SE
  neuronal loss (drop out) compared to control rats: 53%
[4]; DZP, amygdala medial ventral posterior nucleus, 14 days after SE
  neuronal loss compared to control rats: 38%
[4]; DZP, dentate gyrus granule cell layer, 14 days after SE
  neuronal damage compared to control rats: did not show overt damage
[4]; DZP, dorsal entorhinal cortex layer II, 14 days after SE
  neuronal damage compared to control saline-treated rats: 18%
[4]; DZP, dorsal entorhinal cortex layers III-IV, 14 days after SE
  neuronal damage compared to control saline-treated rats: 24%
[4]; DZP, hilus of dentate gyrus, 14 days after SE
  neuronal loss compared to control rats: 65% and 66%
[4]; DZP, hippocampus CA1 pyramidal cell layer, 14 days after SE
  neuronal loss (drop out) compared to control rats: 85%
[4]; DZP, hippocampus CA3 region, 14 days after SE
  neuronal loss compared to control rats: 40%
[4]; DZP, piriform cortex dorsal layer II, 14 days after SE
  neuronal loss compared to control saline-treated rats: 66%
[4]; DZP, piriform cortex layer III, 14 days after SE
  neuronal loss compared to control saline-treated rats: 94%
[4]; DZP, piriform cortex ventral layer II, 14 days after SE
  neuronal loss compared to control saline-treated rats: 89%
[4]; DZP, thalamus central medial nucleus, 14 days after SE
  neuronal loss (drop out) compared to control rats: 34%
[4]; DZP, thalamus dorsolateral medial dorsal nucleus, 14 days after SE
  neuronal loss (drop out) compared to control rats: 40%
[4]; DZP, thalamus mediodorsal central nucleus, 14 days after SE
  neuronal loss (drop out) compared to control rats: 18%
[4]; DZP, thalamus mediodorsal lateral nucleus, 14 days after SE
  neuronal loss (drop out) compared to control rats: 24%
[4]; DZP, thalamus mediodorsal nucleus, 14 days after SE
  neuronal loss compared to control rats: 49%
[4]; DZP, thalamus ventral lateral division of the dorsolateral nucleus, 14 days after SE
  neuronal loss compared to control rats: 90%
[4]; DZP, ventral entorhinal cortex layer II, 14 days after SE
  neuronal damage compared to control saline-treated rats: 22% and 19%
[4]; DZP, ventral entorhinal cortex layers III/IV, 14 days after SE
  neuronal damage compared to control saline-treated rats: 74% and 73%
[4]; Hippocampus CA1 area
  number of neuronal cell bodies: 10.9 ± 1.9
[4]; Hippocampus CA3 area
  number of neuronal cell bodies: 31.3 ± 2.9
[4]; Hippocampus Hilus
  number of neuronal cell bodies: 33.5 ± 3.0
[4]; Thalamus Central medial
  number of neuronal cell bodies: 74.2 ± 7.4
[4]; Thalamus Dorsolateral, medial, dorsal
  number of neuronal cell bodies: 61 ± 6.3
[4]; Thalamus Dorsolateral, ventral lateral
  number of neuronal cell bodies: 9.7 ± 2.5
[4]; Thalamus Mediodorsal central
  number of neuronal cell bodies: 26.3 ± 1.8
[4]; Thalamus Mediodorsal lateral
  number of neuronal cell bodies: 19.6 ± 0.8
[4]; Thalamus Mediodorsal medial
  number of neuronal cell bodies: 16.4 ± 1.9
[5]
  mortality during the first 48 h after SE: 23%
[6]
  EEG by 6-7 h of SE: spiking activity was still present in the cortex and the hippocampus
